One compound from US11707434B2, “Method for preparing organic solvent-free lyophilized cyclophosphamide” (KOREA UNITED PHARM. INC., priority 2018, dated 2023) can be followed below.

The nature of this data set: Measurement of porosity (KOPTRI). Type of data set: physicochemical. The method, then:
The porosity measurement was performed by the Korea Polymer Testing & Research Institute (KOPTRI), an accredited international testing agency, by requesting the samples prepared by the present applicant.

Regarding `O=P1(N(CCCl)CCCl)NCCCO1` (stereo not drawn) [Comparison 2, 2-[bis(2-chloroethyl)amino]tetrahydro-2H-1,3,2-oxazaphosphorin-2-oxide], the Apparent density was 1.31 g/mL and the Porosity came out at 5.24%. The compound further gave an Average diameter (pore size) of 0.02 μm.
